Experiments:
HeLa = assay: Antiproliferative activity against human HeLa cells assessed as cell viability after 72 hrs by trypan blue assay; assay type: functional
A-431 = assay: Antiproliferative activity against human A431 cells assessed as cell viability after 72 hrs by trypan blue assay; assay type: functional; conditions: A-431, 72 h
MSTO-211H = assay: Antiproliferative activity against human MSTO-211H cells assessed as cell viability after 72 hrs by trypan blue assay; assay type: functional
[1] = molecular target: Vascular endothelial growth factor receptor 2 (Homo sapiens, UniProt P35968); assay: Inhibition of human KDR incubated for 50 mins by omnia tyr peptide 8 substrate based fluorescence assay
HUVEC = assay: Antiproliferative activity against human HUVEC cells assessed as reduction in cell viability after 72 hrs by trypan blue assay; assay type: functional
[2] = molecular target: Epidermal growth factor receptor (Homo sapiens, UniProt P00533)
Aorta [3] = assay: Anti-angiogenic activity in rat aortic explant assessed as microvessel sprouting inhibition at 100 nM incubated for 7 days by rat aortic ring assay; assay type: functional; conditions: 168 h
Aorta [4] = assay: Anti-angiogenic activity in rat aortic explant assessed as microvessel sprouting inhibition at 1 uM incubated for 7 days by rat aortic ring assay; assay type: functional; conditions: 168 h
Aorta [5] = assay: Anti-angiogenic activity in rat aortic explant assessed as microvessel sprouting inhibition at 5 uM incubated for 7 days by rat aortic ring assay; assay type: functional; conditions: 168 h
Aorta [6] = assay: Anti-angiogenic activity in rat aortic explant assessed as microvessel sprouting inhibition at 10 uM incubated for 7 days by rat aortic ring assay; assay type: functional; conditions: 168 h
[7] = molecular target: RAC-alpha serine/threonine-protein kinase (Homo sapiens) (UniProt P31749); assay: Inhibition of human Akt1 at 10 uM by kinase inhibition assay
[8] = molecular target: T1, Aurora kinase A (Homo sapiens) (UniProt O14965); assay: Inhibition of human AurA kinase at 10 uM by kinase inhibition assay
T1 sequence (whole entry): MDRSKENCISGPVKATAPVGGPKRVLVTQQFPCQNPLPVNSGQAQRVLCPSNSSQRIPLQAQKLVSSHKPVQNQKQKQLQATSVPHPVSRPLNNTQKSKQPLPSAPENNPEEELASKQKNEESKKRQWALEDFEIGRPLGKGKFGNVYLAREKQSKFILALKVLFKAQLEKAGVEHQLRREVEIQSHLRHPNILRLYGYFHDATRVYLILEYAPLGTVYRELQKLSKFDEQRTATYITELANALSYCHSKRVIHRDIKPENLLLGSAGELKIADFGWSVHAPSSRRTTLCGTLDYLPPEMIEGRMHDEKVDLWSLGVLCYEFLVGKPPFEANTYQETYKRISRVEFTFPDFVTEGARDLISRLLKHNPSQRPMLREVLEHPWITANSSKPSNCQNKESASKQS

[9] = molecular target: Cyclin-dependent kinase 1 (Homo sapiens) (UniProt P06493); assay: Inhibition of human CDK1 at 10 uM by kinase inhibition assay
[10] = molecular target: Mitogen-activated protein kinase 3 (Homo sapiens) (UniProt P27361); assay: Inhibition of human ERK1 at 10 uM by kinase inhibition assay
[11] = molecular target: Focal adhesion kinase 1 (Homo sapiens) (UniProt Q05397); assay: Inhibition of human FAK at 10 uM by kinase inhibition assay
[12] = molecular target: Dual specificity mitogen-activated protein kinase kinase 1 (Homo sapiens) (UniProt Q02750); assay: Inhibition of human MEK1 at 10 uM by kinase inhibition assay
[13] = molecular target: Platelet-derived growth factor receptor beta (Homo sapiens) (UniProt P09619); assay: Inhibition of human PDGFRbeta at 10 uM by kinase inhibition assay
[14] = molecular target: RAF proto-oncogene serine/threonine-protein kinase (Homo sapiens) (UniProt P04049); assay: Inhibition of human RAF1 at 10 uM by kinase inhibition assay
[15] = molecular target: Rho-associated protein kinase 1 (Homo sapiens) (UniProt Q13464); assay: Inhibition of human ROCK1 at 10 uM by kinase inhibition assay
[16] = molecular target: Proto-oncogene tyrosine-protein kinase Src (Homo sapiens) (UniProt P12931); assay: Inhibition of human Src kinase at 10 uM by kinase inhibition assay
HL-60 = assay: Antiproliferative activity against human HL60 cells assessed as growth inhibition; assay type: functional

Sequence of Focal adhesion kinase 1 (Homo sapiens) (Q05397 2-1052 limits assumed): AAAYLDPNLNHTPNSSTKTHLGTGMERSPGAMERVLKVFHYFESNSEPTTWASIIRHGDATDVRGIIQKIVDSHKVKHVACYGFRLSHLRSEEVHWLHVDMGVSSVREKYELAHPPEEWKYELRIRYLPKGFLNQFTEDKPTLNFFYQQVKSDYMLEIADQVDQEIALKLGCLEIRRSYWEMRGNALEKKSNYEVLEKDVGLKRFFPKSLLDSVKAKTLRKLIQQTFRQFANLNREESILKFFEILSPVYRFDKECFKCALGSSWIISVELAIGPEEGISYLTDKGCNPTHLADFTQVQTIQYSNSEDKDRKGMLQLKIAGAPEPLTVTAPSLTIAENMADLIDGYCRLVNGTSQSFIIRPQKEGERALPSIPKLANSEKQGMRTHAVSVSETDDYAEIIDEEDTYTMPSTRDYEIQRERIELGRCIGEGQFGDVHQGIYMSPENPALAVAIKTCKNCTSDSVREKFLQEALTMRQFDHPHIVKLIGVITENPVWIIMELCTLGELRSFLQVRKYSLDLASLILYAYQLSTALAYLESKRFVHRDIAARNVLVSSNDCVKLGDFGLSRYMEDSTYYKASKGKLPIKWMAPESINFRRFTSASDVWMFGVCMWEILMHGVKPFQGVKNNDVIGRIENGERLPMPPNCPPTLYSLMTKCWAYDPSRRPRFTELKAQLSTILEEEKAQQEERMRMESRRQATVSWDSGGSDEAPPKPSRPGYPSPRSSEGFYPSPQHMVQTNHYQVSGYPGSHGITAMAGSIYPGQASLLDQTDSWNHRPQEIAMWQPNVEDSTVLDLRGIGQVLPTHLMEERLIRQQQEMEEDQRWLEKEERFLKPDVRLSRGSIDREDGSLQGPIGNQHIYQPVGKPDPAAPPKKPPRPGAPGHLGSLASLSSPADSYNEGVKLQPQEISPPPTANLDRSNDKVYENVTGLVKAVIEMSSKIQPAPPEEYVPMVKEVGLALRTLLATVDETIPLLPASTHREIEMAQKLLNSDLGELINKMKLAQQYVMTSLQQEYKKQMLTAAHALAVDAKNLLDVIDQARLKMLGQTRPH
Sequence of Platelet-derived growth factor receptor beta (Homo sapiens) (P09619 whole entry): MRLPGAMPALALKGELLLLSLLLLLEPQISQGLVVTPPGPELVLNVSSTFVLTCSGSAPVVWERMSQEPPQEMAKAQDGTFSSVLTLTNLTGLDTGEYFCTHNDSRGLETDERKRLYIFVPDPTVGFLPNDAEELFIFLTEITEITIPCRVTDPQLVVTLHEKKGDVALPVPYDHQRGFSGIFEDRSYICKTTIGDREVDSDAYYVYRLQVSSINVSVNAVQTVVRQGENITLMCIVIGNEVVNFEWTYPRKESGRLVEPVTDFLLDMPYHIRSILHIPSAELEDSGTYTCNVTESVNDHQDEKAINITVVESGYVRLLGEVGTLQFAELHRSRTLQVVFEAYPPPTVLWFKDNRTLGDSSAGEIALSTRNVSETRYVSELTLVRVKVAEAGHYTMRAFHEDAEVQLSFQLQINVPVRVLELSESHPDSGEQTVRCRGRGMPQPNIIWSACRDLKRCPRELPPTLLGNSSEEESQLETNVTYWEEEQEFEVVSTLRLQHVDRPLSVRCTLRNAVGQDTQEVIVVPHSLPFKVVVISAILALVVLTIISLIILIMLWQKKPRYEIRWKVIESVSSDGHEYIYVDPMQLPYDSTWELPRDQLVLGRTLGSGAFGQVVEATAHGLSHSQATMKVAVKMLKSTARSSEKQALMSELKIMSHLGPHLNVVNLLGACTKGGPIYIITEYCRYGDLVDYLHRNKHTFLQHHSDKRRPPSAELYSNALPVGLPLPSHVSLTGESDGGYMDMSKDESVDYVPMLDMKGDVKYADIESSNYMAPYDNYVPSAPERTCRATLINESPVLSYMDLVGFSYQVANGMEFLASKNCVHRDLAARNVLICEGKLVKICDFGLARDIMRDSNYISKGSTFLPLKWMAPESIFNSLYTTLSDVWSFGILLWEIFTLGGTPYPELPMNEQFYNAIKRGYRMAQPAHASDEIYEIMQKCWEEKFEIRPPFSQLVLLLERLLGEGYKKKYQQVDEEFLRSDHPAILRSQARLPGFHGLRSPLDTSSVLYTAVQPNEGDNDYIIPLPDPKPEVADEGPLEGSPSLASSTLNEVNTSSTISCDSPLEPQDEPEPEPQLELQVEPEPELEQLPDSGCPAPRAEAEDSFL
Sequence of RAF proto-oncogene serine/threonine-protein kinase (Homo sapiens) (P04049 whole entry): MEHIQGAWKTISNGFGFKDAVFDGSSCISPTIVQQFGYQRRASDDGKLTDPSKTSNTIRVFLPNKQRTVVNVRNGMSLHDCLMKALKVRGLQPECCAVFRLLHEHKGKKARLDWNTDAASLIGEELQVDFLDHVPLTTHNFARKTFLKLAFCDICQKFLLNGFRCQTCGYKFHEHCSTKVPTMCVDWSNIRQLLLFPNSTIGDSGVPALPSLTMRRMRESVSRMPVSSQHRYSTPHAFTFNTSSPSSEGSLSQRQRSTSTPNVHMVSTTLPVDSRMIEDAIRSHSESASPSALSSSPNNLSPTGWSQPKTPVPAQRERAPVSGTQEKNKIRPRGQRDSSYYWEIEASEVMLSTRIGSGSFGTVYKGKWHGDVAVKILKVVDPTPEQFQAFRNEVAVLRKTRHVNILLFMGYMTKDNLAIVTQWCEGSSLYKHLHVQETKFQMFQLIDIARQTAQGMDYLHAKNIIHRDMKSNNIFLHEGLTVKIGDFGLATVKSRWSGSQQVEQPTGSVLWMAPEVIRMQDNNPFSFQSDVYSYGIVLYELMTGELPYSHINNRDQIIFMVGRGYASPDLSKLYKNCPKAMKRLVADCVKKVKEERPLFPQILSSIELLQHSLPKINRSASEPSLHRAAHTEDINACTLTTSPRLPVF
Sequence of Mitogen-activated protein kinase 3 (Homo sapiens) (P27361 whole entry): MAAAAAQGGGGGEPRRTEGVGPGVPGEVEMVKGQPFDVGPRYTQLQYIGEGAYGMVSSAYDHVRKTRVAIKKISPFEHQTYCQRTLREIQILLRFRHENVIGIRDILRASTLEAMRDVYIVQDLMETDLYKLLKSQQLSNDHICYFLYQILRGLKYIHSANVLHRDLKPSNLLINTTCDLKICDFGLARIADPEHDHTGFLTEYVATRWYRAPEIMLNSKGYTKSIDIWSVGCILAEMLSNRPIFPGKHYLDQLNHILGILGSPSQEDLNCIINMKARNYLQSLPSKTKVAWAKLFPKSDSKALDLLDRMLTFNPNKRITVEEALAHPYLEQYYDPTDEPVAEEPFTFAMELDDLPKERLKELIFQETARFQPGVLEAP
Sequence of Proto-oncogene tyrosine-protein kinase Src (Homo sapiens) (P12931 2-536 limits assumed): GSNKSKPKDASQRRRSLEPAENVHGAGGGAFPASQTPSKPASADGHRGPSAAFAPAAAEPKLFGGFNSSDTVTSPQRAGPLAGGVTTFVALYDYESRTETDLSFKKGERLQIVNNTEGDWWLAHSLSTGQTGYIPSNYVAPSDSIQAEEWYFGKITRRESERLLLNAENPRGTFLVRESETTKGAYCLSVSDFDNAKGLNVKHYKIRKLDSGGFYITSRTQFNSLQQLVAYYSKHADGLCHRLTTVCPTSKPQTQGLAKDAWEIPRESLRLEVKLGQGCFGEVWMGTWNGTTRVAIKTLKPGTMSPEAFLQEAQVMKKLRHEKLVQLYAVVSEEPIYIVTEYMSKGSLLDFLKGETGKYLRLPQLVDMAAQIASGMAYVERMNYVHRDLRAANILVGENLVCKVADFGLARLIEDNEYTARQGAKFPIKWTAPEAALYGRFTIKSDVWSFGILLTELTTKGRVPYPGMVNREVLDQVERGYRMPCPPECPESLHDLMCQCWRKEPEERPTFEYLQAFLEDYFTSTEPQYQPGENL
Sequence of RAC-alpha serine/threonine-protein kinase (Homo sapiens) (P31749 whole entry): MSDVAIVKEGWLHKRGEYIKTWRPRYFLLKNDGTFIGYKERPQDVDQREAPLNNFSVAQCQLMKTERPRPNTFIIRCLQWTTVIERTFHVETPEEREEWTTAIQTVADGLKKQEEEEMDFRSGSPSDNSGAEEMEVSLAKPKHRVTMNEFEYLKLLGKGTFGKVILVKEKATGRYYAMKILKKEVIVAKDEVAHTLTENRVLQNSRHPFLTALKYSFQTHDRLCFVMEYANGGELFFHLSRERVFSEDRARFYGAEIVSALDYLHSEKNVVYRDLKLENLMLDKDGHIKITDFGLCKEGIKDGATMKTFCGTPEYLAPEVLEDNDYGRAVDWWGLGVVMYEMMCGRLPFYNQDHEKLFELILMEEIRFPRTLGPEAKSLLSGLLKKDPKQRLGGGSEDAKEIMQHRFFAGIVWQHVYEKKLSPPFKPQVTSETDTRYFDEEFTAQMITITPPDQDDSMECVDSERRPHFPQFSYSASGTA
Sequence of Dual specificity mitogen-activated protein kinase kinase 1 (Homo sapiens) (Q02750 whole entry): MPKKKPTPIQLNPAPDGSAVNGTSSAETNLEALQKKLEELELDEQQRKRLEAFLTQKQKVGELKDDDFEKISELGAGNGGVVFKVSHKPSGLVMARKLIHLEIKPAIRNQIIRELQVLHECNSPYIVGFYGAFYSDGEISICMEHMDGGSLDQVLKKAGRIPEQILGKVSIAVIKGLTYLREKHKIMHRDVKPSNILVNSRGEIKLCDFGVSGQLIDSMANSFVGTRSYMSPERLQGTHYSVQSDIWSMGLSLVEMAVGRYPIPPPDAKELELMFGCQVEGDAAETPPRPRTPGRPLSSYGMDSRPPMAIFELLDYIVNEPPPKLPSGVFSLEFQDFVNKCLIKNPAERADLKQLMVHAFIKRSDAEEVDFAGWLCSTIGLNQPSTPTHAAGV
Sequence of Cyclin-dependent kinase 1 (Homo sapiens) (P06493 whole entry, looked up): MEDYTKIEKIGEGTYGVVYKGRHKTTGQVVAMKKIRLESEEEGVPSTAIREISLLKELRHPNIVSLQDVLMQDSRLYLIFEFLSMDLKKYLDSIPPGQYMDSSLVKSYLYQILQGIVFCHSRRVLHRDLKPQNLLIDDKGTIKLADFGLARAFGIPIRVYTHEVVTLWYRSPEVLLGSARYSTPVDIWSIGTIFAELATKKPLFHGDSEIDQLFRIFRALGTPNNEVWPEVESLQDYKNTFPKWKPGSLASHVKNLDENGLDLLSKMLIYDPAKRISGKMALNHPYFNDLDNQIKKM

GI50 (HeLa) [µM] | GI50 (A-431) [µM] | SMILES | GI50 (MSTO-211H) [µM] | GI50 (HUVEC) [µM] | further results
> 20 | > 20 | Clc1ccc2c(c1)SCc1cnc(Nc3ccccc3)nc1-2 | > 20 | > 20 | IC50 [1]: > 50 µM
> 20 | > 20 | COc1ccc(CNc2ncc3c(n2)-c2ccccc2SC3)cc1 | > 20 | > 20 | –
1.5 | 2.2 | Clc1ccc(Nc2ncc3c(n2)-c2ccc(Cl)cc2SC3)cc1 | 1.6 | 0.35 | IC50 [2]: 45.7 µM; IC50 [1]: 5.6 µM; inhibition at 0.1 µM (Aorta [3]): -0.5%; inhibition at 1 µM (Aorta [4]): 15%; inhibition at 5 µM (Aorta [5]): 88%; inhibition at 10 µM (Aorta [6]): 98%; inhibition [7]: 3%; inhibition [8]: 0%; inhibition [9]: -3.2%; inhibition [10]: -4.3%; inhibition [11]: -0.9%; inhibition [12]: 5.9%; inhibition [13]: 2.5%; inhibition [14]: -1.5%; inhibition [15]: -5.6%; inhibition [16]: 8.8%
> 20 | > 20 | Clc1ccc2c(c1)SCc1cnc(NCc3ccccc3)nc1-2 | > 20 | 15.1 | –
> 20 | > 20 | COc1ccc(-c2ncc3c(n2)-c2ccc(Cl)cc2SC3)cc1 | > 20 | 4.7 | –
> 20 | > 20 | Clc1ccc(-c2ncc3c(n2)-c2ccc(Cl)cc2SC3)cc1 | > 20 | 15.3 | –
> 20 | 6.5 | COc1ccc2c(c1)SCc1cnc(-c3ccccc3)nc1-2 | 11.9 | 2.9 | IC50 [2]: 4.72 µM; inhibition [7]: -4%; inhibition [8]: -2.2%; inhibition [9]: -4.2%; inhibition [10]: -1.7%; inhibition [11]: 11.6%; inhibition [12]: 14.6%; inhibition [13]: -6%; inhibition [14]: 2.6%; inhibition [15]: -6.3%; inhibition [16]: 0.3%
> 20 | > 20 | Clc1ccc(CNc2ncc3c(n2)-c2ccc(Cl)cc2SC3)cc1 | > 20 | 17 | –
> 20 | > 20 | COc1ccc2c(c1)SCc1cnc(Nc3ccc(Cl)cc3)nc1-2 | > 20 | > 20 | IC50 [1]: > 50 µM
> 20 | > 20 | COc1ccc(-c2ncc3c(n2)-c2ccccc2SC3)cc1 | > 20 | 12 | –
> 20 | > 20 | COc1ccc(CNc2ncc3c(n2)-c2ccc(Cl)cc2SC3)cc1 | > 20 | 12 | –
> 20 | > 20 | COc1ccc(CNc2ncc3c(n2)-c2ccc(OC)cc2SC3)cc1 | > 20 | > 20 | –
10.2 | > 20 | c1ccc(Nc2ncc3c(n2)-c2ccccc2SC3)cc1 | 11.7 | 2.4 | IC50 [1]: 8.2 µM
> 20 | > 20 | Clc1ccc2c(c1)SCc1cnc(-c3ccccc3)nc1-2 | > 20 | 2.3 | –
> 20 | > 20 | Clc1ccc(-c2ncc3c(n2)-c2ccccc2SC3)cc1 | > 20 | 11.3 | –
– | – | COc1ccc2c(c1)SCc1ncc(-c3ccccc3)nc1-2 | – | – | GI50 (HL-60): 7.15 µM
0.7 | 0.96 | COc1ccc(Nc2ncc3c(n2)-c2ccccc2SC3)cc1 | 1.08 | 0.45 | inhibition at 0.1 µM (Aorta [3]): -8%; inhibition at 1 µM (Aorta [4]): 9%; inhibition at 5 µM (Aorta [5]): 95%; inhibition at 10 µM (Aorta [6]): 96%; inhibition [7]: 1.4%; inhibition [8]: 71.7%; inhibition [9]: 84.8%; inhibition [10]: -1.8%; inhibition [11]: 47.3%; inhibition [12]: 21.6%; inhibition [13]: 42%; inhibition [14]: 4.1%; inhibition [15]: -0.4%; inhibition [16]: 12%
2.1 | 5.8 | COc1ccc(Nc2ncc3c(n2)-c2ccc(Cl)cc2SC3)cc1 | > 20 | 16.4 | IC50 [2]: 21.6 µM; IC50 [1]: > 50 µM
– | – | Cc1cc(C)c(/C=C2\C(=O)Nc3ccccc32)[nH]1 [SEMAXANIB] | – | 13.6 | inhibition at 0.1 µM (Aorta [3]): -12%; inhibition at 1 µM (Aorta [4]): -2%; inhibition at 5 µM (Aorta [5]): 72%; inhibition at 10 µM (Aorta [6]): 100%
15.6 | > 20 | Clc1ccc(Nc2ncc3c(n2)-c2ccccc2SC3)cc1 | 11.5 | 7.3 | IC50 [1]: > 50 µM
> 20 | > 20 | COc1ccc2c(c1)SCc1cnc(-c3ccc(Cl)cc3)nc1-2 | > 20 | > 20 | –
> 20 | > 20 | c1ccc(CNc2ncc3c(n2)-c2ccccc2SC3)cc1 | > 20 | > 20 | –
> 20 | > 20 | COc1ccc2c(c1)SCc1cnc(NCc3ccccc3)nc1-2 | > 20 | > 20 | –
> 20 | > 20 | COc1ccc2c(c1)SCc1cnc(NCc3ccc(Cl)cc3)nc1-2 | > 20 | > 20 | –
> 20 | > 20 | c1ccc(-c2ncc3c(n2)-c2ccccc2SC3)cc1 | > 20 | 4 | –
> 20 | > 20 | COc1ccc(-c2ncc3c(n2)-c2ccc(OC)cc2SC3)cc1 | > 20 | 4.8 | –
0.83 | 0.96 | COc1ccc(Nc2ncc3c(n2)-c2ccc(OC)cc2SC3)cc1 | 1.08 | 0.74 | IC50 [1]: 17.5 µM
> 20 | > 20 | Clc1ccc(CNc2ncc3c(n2)-c2ccccc2SC3)cc1 | > 20 | 12.3 | –
20.1 | > 20 | COc1ccc2c(c1)SCc1cnc(Nc3ccccc3)nc1-2 | 15 | 4.3 | IC50 [1]: > 50 µM
